Reference: paper PMC10707934, “Design and Synthesis of Novel α-Methylchalcone Derivatives, Anti-Cervical Cancer Activity, and Reversal of Drug Resistance in HeLa/DDP Cells” (Molecules, 2023)

Tests used:
[1] = system: human cervical epithelial cells H8; assay: MTT toxicity assay, normal cervical epithelial cells H8; format: cell-based; details: 48 h, mean ± SD
Description: All cell types, at a volume of 200 µL per well, were inoculated in 96-well plates at a density of 2.5 × 10^4 cells / mL and cultured for 24 h in an incubator with 5% CO2 at 37 °C. The old culture medium was replaced with 200 µL of fresh medium per well containing positive compounds, at concentrations of 1, 6.25, 12.5, 25, 50, and 100 μM. After 48 h of culture, 20 µL per well of 5 mg·mL^−1 MTT solution was added. After 4 h of culture, the old solution was discarded, and 150 µL per well of DMSO solution was added. Using an enzyme labeler (Thermo Fisher Scientific, Multiskan GO, Waltham, MA, USA), the plates were shaken for 10 min, OD values were determined at 490 nm, and the inhibition rate was calculated. Non-linear regression fitting of the cell growth rate was carried out using SPSS 23.0, and the IC50 of the compound was calculated. The inhibition rate was calculated using the formula: [(ODempty − ODtest)/(ODempty − ODnegative group)] × 100%, (ODempty blank group absorbance, ODtest absorbance of administration group, ODnegative group without cell culture medium). Each group contained six compound holes, and the experimental results averaged three trials. Complete medium containing only cells was used as the blank control; a complete medium without cells as was used as the negative control; and cisplatin, paclitaxel, and adriamycin were used as the positive controls. The concentration gradient was the same as that used for compounds 3a–3p.

HeLa cells [2] = assay: MTT anti-proliferation assay, HeLa; format: cell-based, human; details: 48 h, mean ± SD
Outline: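 HeLa and cisplatin-resistant HeLa/DDP cells were seeded at 2.5 × 10^4 cells/mL, cultured 24 h, then exposed to compounds at 1–100 μM for 48 h. MTT was added for 4 h, formazan dissolved in DMSO, and OD read at 490 nm. IC50 was derived by non-linear regression of inhibition rate, averaged over three trials.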

HeLa/DDP cells = assay: Transwell migration assay, HeLa/DDP; format: cell-based, human; details: 24 h, control 497
Description: (§1) HeLa (5 × 10^4 cells) was suspended in 200 μL of FBS-free medium. The top chamber contained the vehicle and various concentrations of compound 3k (2.5, 5, and 10 μM), cisplatin (20 μM) and chalcone (20 μM). The lower chamber was filled with 600 μL of medium containing 10% FBS. After incubating at 37 °C for 24 h, the cells on the top side of the Transwell membrane were removed with a cotton tip. Cells were fixed and stained with 4% paraformaldehyde (LEAGENE BIOTECHNOLOGY, Cat:DF0135, Lot:0823A23, Zhongguancun, Haidian District, Beijing, China) and 0.1% crystal violet solutions (Leagene Biotechnology, Cat:DZ0055, Lot:0508A23, Zhongguancun, Haidian District, Beijing, China) for 30 min to fix cells trapped on the perforated side of the membrane.
The experimental methods for the effects of compound 3k, cisplatin, and chalcone on HeLa/DDP cell invasion and migration were the same as in Section 3.3.6.

[3] = system: α-tubulin, β-tubulin in HeLa cells; assay: Immunofluorescence assay of microtubules, HeLa; format: cell-based, human; details: 24 h, 3k 1, 2, and 4 μM, colchicine and paclitaxel 2.0 μM
Description: The cells were then fixed by adding 400 μL of 4% paraformaldehyde to each well and incubating for 30 min. 0.1% Triton was added at a volume of 400 μL per well and allowed to incubate for 10 min. Following this, goat serum (10%) was added at 400 μL per well and incubated for 40 min. Primary antibodies (α-tubulin, β-tubulin) were then incubated overnight at a temperature of 4 °C. Subsequently, secondary antibodies (α-mouse, β-rabbit) were incubated for 1.5 h. DAPI staining was performed at 400 μL per well for 5 min, followed by a wash with PBS. Cell climbing tablets were removed and inverted onto slides with sealer. Photographs were captured using a fluorescent inverted microscope.

HeLa cells [4] = assay: Transwell migration assay, HeLa; format: cell-based, human; details: 24 h, control 1176
Description: as §1

Row | Compound | IC50 [1] [µM] | IC50 (HeLa cells [2]) [µM] | number of migrated cells (HeLa/DDP cells; 20 μM) | IC50 ([1]; Homo sapiens, Epithelial cell) [µM] | IC50 (HeLa cells [2]; Homo sapiens) [µM] | microtubule immunofluorescence (α green, β red) [3] | number of migrated cells (HeLa cells [4]; 2.5 μM) | number of migrated cells (HeLa cells [4]; 5 μM) | number of migrated cells (HeLa cells [4]; 10 μM) | number of migrated cells (HeLa/DDP cells; 2.5 μM) | number of migrated cells (HeLa/DDP cells; 5 μM) | number of migrated cells (HeLa/DDP cells; 10 μM)
1 | N.N.[Cl][Pt][Cl] [Cisplatin, cisplatin, reference compound] | 25.2 ± 1.29 | 13 ± 1.82 | 395 |  |  |  |  |  |  |  |  | 
2 | COc1ccc(/C=C(\C)C(=O)c2ccc(Cl)c(Cl)c2)cc1OC [Compound 3k, (E)-1-(3,4-Dichlorophenyl)-3-(3,4-dimethoxyphenyl)-2-methylprop-2-en-1-one] |  |  |  | > 100 | 9.05 ± 0.53 | green and red fluorescence of the encapsulated cells weakened | 518 | 388 | 166 | 251 | 179 | 113
